Common to all, as to format: functional, cell-based
Test [1] concerns the target T1, 5-hydroxytryptamine receptor 2A (Homo sapiens, UniProt P28223). Put plainly: Agonist activity at human 5-HT2AR expressed in HEK293 cells incubated upto 90 sec by Fluo-4 AM dye based Ca2+ imaging assay.
Test [2] has as its target T1, 5-hydroxytryptamine receptor 2A. Put plainly: Agonist activity at human 5-HT2AR expressed in HEK293 cells assessed as maximal response incubated upto 90 sec by Fluo-4 AM dye based Ca2+ imaging assay relative to 5-HT. The settings on record: filed as agonist.
The target in test [3] is T2, 5-hydroxytryptamine receptor 2C (Homo sapiens) (UniProt P28335).
T2 sequence (whole entry): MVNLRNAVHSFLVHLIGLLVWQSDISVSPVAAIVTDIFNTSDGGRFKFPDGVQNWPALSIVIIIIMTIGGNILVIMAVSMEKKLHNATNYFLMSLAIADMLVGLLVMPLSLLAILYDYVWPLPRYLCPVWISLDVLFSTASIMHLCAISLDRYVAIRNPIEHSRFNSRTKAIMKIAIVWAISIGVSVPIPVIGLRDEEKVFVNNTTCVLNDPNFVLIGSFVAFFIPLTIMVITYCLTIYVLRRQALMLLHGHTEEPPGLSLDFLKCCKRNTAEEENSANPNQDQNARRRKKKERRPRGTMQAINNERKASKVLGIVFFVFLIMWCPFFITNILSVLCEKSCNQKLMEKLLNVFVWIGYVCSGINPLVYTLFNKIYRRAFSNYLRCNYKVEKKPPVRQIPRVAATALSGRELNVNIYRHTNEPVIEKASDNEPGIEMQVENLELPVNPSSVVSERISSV
The test can be described thus: Agonist activity at human 5-HT2CR expressed in HEK293 cells upto 50 uM incubated upto 90 sec by Fluo-4 AM dye based Ca2+ imaging assay.

The target in test [4] is T1, 5-hydroxytryptamine receptor 2A. The test can be described thus: Agonist activity at human 5-HT2AR expressed in HEK293 cells upto 50 uM incubated upto 90 sec by Fluo-4 AM dye based Ca2+ imaging assay.

Consider eight compounds from ChEMBL document CHEMBL5506019 (J Med Chem, 2024).

Activity calls are given as the source filed them. The rule behind the calls is not given here.

T1 sequence (P28223 whole entry): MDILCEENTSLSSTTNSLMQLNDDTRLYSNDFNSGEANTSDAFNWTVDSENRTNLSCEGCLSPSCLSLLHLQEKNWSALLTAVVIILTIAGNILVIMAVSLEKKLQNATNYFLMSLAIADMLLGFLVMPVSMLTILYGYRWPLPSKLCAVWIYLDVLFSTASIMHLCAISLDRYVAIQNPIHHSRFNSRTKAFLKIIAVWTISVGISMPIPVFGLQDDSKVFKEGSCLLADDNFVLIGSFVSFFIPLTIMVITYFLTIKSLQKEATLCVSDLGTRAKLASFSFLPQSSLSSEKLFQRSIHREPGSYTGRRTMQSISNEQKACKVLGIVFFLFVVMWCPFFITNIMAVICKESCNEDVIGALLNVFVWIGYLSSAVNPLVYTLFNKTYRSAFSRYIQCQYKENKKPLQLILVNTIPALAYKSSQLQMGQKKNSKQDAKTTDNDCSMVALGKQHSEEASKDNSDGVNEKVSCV

On to `COc1cc(CCN)c(OC)cc1Br`, for which the EC50 (as a rule, the concentration that produces a half-maximal response) in test [1] amounted to 1.6 nM. The Rmax in test [2] was found to be 68%.
Consider `CCN1CCC[C@H](c2cc(OC)c(C(F)(F)F)cc2OC)C1`, for which the outcome in test [3] and in test [4] was inactive.
Regarding `COc1ccc(OC)c(C2CCCNC2)c1` (racemic), the result in test [3] and in test [4] was inactive.
As for `CCOc1cc(C(F)(F)F)c(OCC)cc1C1CCCNC1` (stereo in doubt), the outcome in test [3] was inactive.
On the same count and under the same terms, then `CCOc1cc(C(F)(F)F)c(OCC)cc1C1CCCNC1` (stereo in doubt; 26(eu)), with “inactive”.
For the compound `CCN1CCC[C@@H](c2cc(OC)c(C(F)(F)F)cc2OC)C1`, the result in test [3] was inactive.
On the same count and under the same terms, next, `COc1cc(C2CCCNC2)ccc1C(F)(F)F` (configuration not stated): “inactive”.
Take `FC(F)(F)c1ccc(C2CCCNC2)cc1` (racemic): the result in test [3] and in test [4] was inactive.
